# Test results as given in patent publication US10875874B2, “Ginkgolide B derivative and preparation method and use thereof” (Chengdu Baiyu Ginkgolide Pharmaceuticals Co., Ltd., priority 2015, dated 2020).
# Marks after values point to notes of the source that are not given here.
# Key:
# Format in all cases: in vivo, rat
# [1] = Weekly food intake of SHR rats; conditions: captopril 27 mg/kg intragastric
# Description: (§1) 2.1 Grouping and administration of animals: 112 SHR rats (the female and male SHR rats are half and half, and the female rats are not pregnant) with the body weight of 200-250 g are taken, the rats are enabled to adapt to a laboratory for a period of 5 d, blood pressure is measured once at a day to enable the rats to adapt to the environment and detect stimulation. Then, weighing and numbering are carried out, and the SHR rats are equally divided into 14 groups randomly (each group comprises 8 rats), i.e., an SHR rat model control group, a positive control group (captopril, 27 mg/kg), a BZ large-dose group (120 mg/kg/d), a BZ small-dose group (60 mg/kg/d), a BA large-dose group (120 mg/kg/d), a BA small-dose group (60 mg/kg/d), a BL large-dose group (120 mg/kg/d), a BL small-dose group (60 mg/kg/d), a BM large-dose group (120 mg/kg/d), a BM small-dose group (60 mg/kg/d), a BD large-dose group (120 mg/kg/d), a BD small-dose group (60 mg/kg/d), a GB large-dose group (120 mg/kg/d) and a GB small-dose group (60 mg/kg/d). In addition, 8 healthy Wistar rats are taken as a normal control group. Intragastric administration is performed on the rats of each drug group separately according to the above-mentioned doses by 1 mL/100 g body weight, intragastric administration is performed on the rats of the normal control group and the rats of the SHR rat model control group with an equal volume of distilled water, and administration is performed continuously for 8 weeks.
# (§2) 2.2 General state: during observation, conditions such as mind, water drinking, food intake, bowel movement, hair color, body weight and range of motion of rats are observed. Irritable degrees of the rats are divided into III levels: a level I means that the rats are free of obvious response when necks of the rats are seized; a level II means that the rats scream and startle when the necks of the rats are seized; and a level III means that the rats bite or rats of same cages frequently fight when the necks of the rats are seized.
# (§3) 3.1 Influence on general state of spontaneously hypertensive rats: the rats of the normal control group are normal in food intake, drinking and motion conditions, sensitive in response, healthy and glossy in hair color, good in mental state and free of any unusual response; the rats of the SHR model group gradually present that back hair is fluffy, clustered and dim, the appetite is reduced, the body weight is reduced, the mind is dispirited and irritable, and the rats are prone to the behaviors of intense resisting, attacking and so on during administration and blood pressure detection, and irritable degrees are mostly changed to a level II and a level III from a level I; and after single administration of ginkgolide B and derivatives thereof, behavioral general state observations of rats of each group are free of obvious difference from those of the model control group.
# [2] = Weekly body weight of SHR rats; conditions: captopril 27 mg/kg intragastric
# Description: as §1, §2, §3
# [3] = test system: spontaneously hypertensive rats (SHR); assay: Caudal artery systolic pressure of spontaneously hypertensive rats, single administration; conditions: captopril 27 mg/kg intragastric single administration, x ± s, n = 8
# Description: as §1
# (§4) 2.3 Blood pressure measuring: caudal artery systolic pressure of rats is measured with a Bp-6 noninvasive blood pressure measuring system. Under the condition that the rats are calm, the systolic pressure is continuously measured for 3 times, and the average value of the measured systolic pressure is taken as a pressure measuring result. Observation indexes: (1) single-administration pressure lowering effect: blood pressure of the rats is measured before administration and blood pressure conditions are measured 30 min, 60 min, 90 min and 120 min after first administration; and (2) continuous-administration pressure lowering condition: blood pressure is separately measured 30 min after administration at 1 d, 7 d, 13 d, 19 d, 25 d, 35 d, 49 d and 56 d, the blood pressure is repeatedly measured for 3 times at a day, and the average value of obtained values is taken as a final blood pressure value.
# [4] = test system: spontaneously hypertensive rats (SHR); assay: Caudal artery systolic pressure of spontaneously hypertensive rats, 8 weeks of continuous medication; conditions: captopril 27 mg/kg intragastric continuous, x ± s, n = 8
# Description: as §1, §4
structure (smiles),measurement,setting,value
"C[C@H](CS)C(=O)N1CCC[C@H]1C(=O)O [Positive control, captopril, reference compound]",Average dairy food intake,[1]; week 0,18.4 g/day
same,Average dairy food intake,[1]; week 1,20.0^▴ g/d
same,Average dairy food intake,[1]; week 2,19.1^▴ g/d
same,Average dairy food intake,[1]; week 3,19.5^▴ g/d
same,Average dairy food intake,[1]; week 4,19.9^▴ g/d
same,Average dairy food intake,[1]; week 5,21.4^▴▴ g/d
same,Average dairy food intake,[1]; week 6,23.8^▴▴ g/d
same,Average dairy food intake,[1]; week 7,24.6^▴▴ g/d
same,Average dairy food intake,[1]; week 8,26.3^▴▴ g/d
same,Body weight,[2]; week 0,230.5 g
same,Body weight,[2]; week 1,235.1 g
same,Body weight,[2]; week 2,245.4^▴ g
same,Body weight,[2]; week 3,255.9^▴▴ g
same,Body weight,[2]; week 4,260.5^▴▴ g
same,Body weight,[2]; week 5,266.3^▴▴ g
same,Body weight,[2]; week 6,271.0^▴▴ g
same,Body weight,[2]; week 7,280.6^▴▴ g
same,Body weight,[2]; week 8,290.7^▴▴ g
same,Systolic pressure,[3]; 30 min,149.75 ± 8.09 mmHg
same,Systolic pressure,[3]; 60 min,140.95 ± 9.50 mmHg
same,Systolic pressure,[3]; 90 min,139.23 ± 6.04 mmHg
same,Systolic pressure,[3]; 120 min,134.41 ± 8.31 mmHg
same,Systolic pressure,[3]; before administration,161.24 ± 11.03 mmHg
same,Systolic pressure,"[4]; 1 d, 30 min after administration",145.17 ± 6.42 mmHg
same,Systolic pressure,"[4]; 7 d, 30 min after administration",142.05 ± 7.24 mmHg
same,Systolic pressure,"[4]; 13 d, 30 min after administration",140.36 ± 9.20 mmHg
same,Systolic pressure,"[4]; 19 d, 30 min after administration",138.39 ± 7.26 mmHg
same,Systolic pressure,"[4]; 25 d, 30 min after administration",145.02 ± 7.30 mmHg
same,Systolic pressure,"[4]; 35 d, 30 min after administration",139.08 ± 6.72 mmHg
same,Systolic pressure,"[4]; 49 d, 30 min after administration",135.47 ± 8.47 mmHg
same,Systolic pressure,"[4]; 56 d, 30 min after administration",130.39 ± 4.65 mmHg
same,Systolic pressure,[4]; before administration,161.24 ± 11.03 mmHg
